Key:
[1] = Recovery of CA1 from plasma; type: in vitro ADME; settings: in the presence of ascorbic acid in the extraction mixture
Description: In blood, the ortho catechol CA1 is susceptible to oxidation. […] The recovery of CA1 was resolved by incorporation of ascorbic acid as an antioxidant in the extraction mixture. In the presence of ascorbic acid the recovery of CA1 from plasma was increased to approximately 90%.

tumor cells = assay: Tumor cell cytotoxicity, MTT assay; type: cell-based
Description: Exponentially growing tumor cells were treated with the following compounds for 24 hours. Insoluble compounds were formulated in a small amount (0.3%) of DMSO for biological evaluation. Cell viability was determined by the calorimetric MTT assay using 3(4,5-dimethylthiazol-2-yl)-2,5-diphenyl-2H-tetrazolium bromide according to well-established procedures (see Berridge, et al. (1996) for a general protocol of this type of assay).

MHEC-5T tumors = assay: Reduction in tumor blood flow / functional tumor vessels (fluorescent beads); type: in vivo, mice; settings: for reduction in tumor blood flow: 24 hr post-drug
Description: (§1) Catechols were dissolved in 50% DMSO (2 mg/kg) prior to intravenous (iv) administration (i.v.) to tumor-bearing mice. MHEC-5T tumors were established by subcutaneous injection of 0.5×10^6 cultured MHEC5-T cells (German Collection of Microorganisms and Cell Culture, Braunschweig, Germany) into the right flank of Fox Chase CB-17 severe combined immunodeficient (SCID) mice. Tumor grafts grew palpable within one week and reached the limited size (15×15 mm) within 10 days. Tumor bearing mice were injected intraperitoneally with saline control or various dosages of CA1P or CA4P after the transplanted tumor reached a size of 300 mm^3 (a size without development of necrosis). Twenty-four hours later they were injected with 0.25 ml of fluorescent FluoSphere beads (0.1 μm beads conjugated with blue fluorescent tag (F-8789, Molecular Probes, Eugene, Oreg.) and diluted 1:6 in physiological saline) in the tail vein, and sacrificed after 3 minutes. Tumors were then excised for cryosections. Cryosections of 8 μm thickness were directly examined under a fluorescent microscope. Functional blood vessels were indicated by blue fluorescence from injected microbeads. For quantification, three sections from three tumors treated in each group were examined and in each section, more than 70% of the area was automatically recorded with a microscopic digital camera at ×10 magnification. A computer program named Stage Pro (Media Cybernetics, Md.) was used to control the picture recording. Image analysis was performed with Image Plus software (Media Cybernetics, Md.). The results were expressed as vessel area per mm^2 in percentage of the control in Table 2.
as §1, with “The effect of CA1P on tumor blood flow was evaluated by quantifying the number of functional tumor vessels” for “Catechols were dissolved”, “treated murine tumors.” for “50% DMSO (2 mg/kg) prior to intravenous (iv) administration (i.v.) to tumor-bearing mice.”, “as in Example 4c.” for “by subcutaneous injection of 0.5×10^6 cultured MHEC5-T cells (German Collection of Microorganisms and Cell Culture, Braunschweig, Germany) into the right flank of Fox Chase CB-17 severe combined immunodeficient (SCID) mice. Tumor grafts grew palpable within one week and reached the limited size (15×15 mm) within 10 days.”, “MD)” for “Md.)”, “MD).” for “Md.).”, “control.” for “control in Table 2.”

[2] = test system: murine adenocarcinoma CaNT; assay: Tumor growth control in CaNT murine tumor model; type: in vivo, mice; settings: single doses of 100, 200, and 400 mg/kg i.p., FIG. 5
Description: The murine adenocarcinoma CaNT was grown subcutaneously on the back of 12- to 16-week old CBA/Gy fTO mice. Tumors were initiated by the injection of 0.05 ml of a crude tumor cell suspension prepared from a donor mouse. Animals were selected for treatment after 3 or 4 weeks, when tumors had reached a geometric mean diameter of 5 to 6.5 mm. CA1P and CA4P were dissolved in 0.9% saline at various concentrations and injected intraperitoneally into tumor bearing mice. Each treatment group consisted of between five and nine mice. A control treatment group was injected with 0.9% saline.

tumor xenografts = assay: Evaluation of tumor xenografts treated with CA1P; type: in vivo
Description: It is expected that in the highly oxygenated regions of the tumor, such as the tumor rim, that are resistant to tumor blood shutdown, CA1 is readily oxidized to its corresponding quinone, and is able to render a single agent response due to this second mechanism of action.

[3] = test system: murine adenocarcinoma CaNT; assay: Functional vascular volume of tumor vessels (Hoechst 333342); type: in vivo, mice; settings: 1 mg/kg i.p. (lowest dose), 24 hours
Description: The effect of CA1P on tumor blood flow was evaluated by quantification of the functional volume of tumor vessels in treated murine tumors using a procedure previously described in detail and incorporated by reference herein (Smith K A, Br. J. Cancer, 57:247-253, 1988). The murine adenocarcinoma CaNT was grown subcutaneously on the back of 12- to 16-week old CBA/Gy fTO mice. Tumors were initiated by the injection of 0.05 ml of a crude tumor cell suspension prepared from a donor mouse. Animals were selected for treatment after 3 or 4 weeks, when tumors had reached a geometric mean diameter of 5 to 6.5 mm. CA1P and CA4P were dissolved in 0.9% saline at various concentrations and injected intraperitoneally into tumor bearing mice. Each treatment group consisted of between five and nine mice. A control treatment group was injected with 0.9% saline. At 24 hours post-injection, each mouse was injected intravenously with a 10 mg/kg dose of the fluorescent DNA-binding dye Hoechst 333342 and sacrificed 1 minute later. Tumors were immediately excised and bisected. Frozen tumor sections were cut at three levels and viewed under UV excitation where the fluorescent staining of perivascular cells identified perfused vessels. Vascular volumes were quantified based on a random point scoring system previously described and incorporated by reference herein (Chalkley H W, J. Natl Cancer Institute, 4: 47-53, 1943). All estimates were based on counting 100 fields from sections cut at each of the 3 different levels and the calculated vascular volumes were expressed as a percentage of the mean value for control tumors.

[4] = Reaction of ortho-quinone with glutathione and ascorbate (stopped-flow, HPLC); type: physicochemical; settings: stopped-flow rapid mixing, FIG. 1A
Description: The formation of each quinone was examined by reacting its corresponding catechol with excess FeCl3/H2SO4 and monitoring the reaction by HPLC. The identity of each quinone was confirmed by HPLC-MS (mass 330, λmax 312, 422 nm).

[5] = Stability of quinone product (TLC and NMR); type: physicochemical; settings: in D7 DMF, following the initiation of the reaction
Description: To a solution of Combretastatin A-4 (0.032 g, 0.100 mmol; OXiGENE, Inc.) was added Iodoxybenzoic acid (0.028 g, 0.099 mmol) in D7 DMF (4 ml) with stirring by vortex for ½ hr. Completion of the reaction was indicated by the disappearance of the initial yellowish slurry and the appearance of a clear solution of a deep red color. ^1H-NMR was performed immediately as the quinone product was highly unstable and degraded within a ½ hr following the initiation of the reaction, as indicated by TLC and NMR.

COc1ccc(/C=C\c2cc(OC)c(OC)c(OC)c2)c(O)c1O [CA1, Combretastatin A-1]
recovery [1]: ~90%
IC50 (tumor cells; tumor cells treated for 24 hours): 0.0046 µM
Blood Flow at 10 mg/kg (% vessel area of control) (MHEC-5T tumors; 10 mg/kg, MHEC-5T tumor-bearing SCID mice, 24 hours after dosing): 30 % vessel area of control

COc1cc(/C=C\c2ccc(OC)c(OP(=O)(O)O)c2OP(=O)(O)O)cc(OC)c1OC [CA1P, Combretastatin A-1 diphosphate]
effect on tumor growth [2]: significant tumor growth delay
tumor cell destruction by location (tumor xenografts): not only destroyed centrally located tumor cells but also cells located at the periphery of the tumor
antiproliferative activity against tumor cells in vitro (tumor cells; in comparison to CA4P): inferior
ED50 (vascular effect) (MHEC-5T tumors; functional vessel number per mm^2, i.p., 24 hr, MHEC-5T tumors): 3 mg/kg
blood flow in the peripheral region of tumors (MHEC-5T tumors; periphery = rim of width 10% of the tumor diameter): reduced the blood flow in the peripheral region as well
reduction in tumor blood flow (MHEC-5T tumors; single i.p. injection 3 mg/kg, MHEC-5T tumors): 50%
reduction in tumor blood flow (MHEC-5T tumors; single i.p. injection 6 mg/kg, MHEC-5T tumors): 74%
reduction in tumor blood flow (MHEC-5T tumors; single i.p. injection 50 mg/kg, MHEC-5T tumors): 90%
blood flow in the central region of tumors (MHEC-5T tumors; spatial distribution of blood vessel shutdown): blood flow reduction
reduction of the percentage of functional vasculature in the tumor [3]: over 50%

COC1=CC=C(/C=C\c2cc(OC)c(OC)c(OC)c2)C(=O)C1=O [CA-1 Ortho-Quinone]
reaction with glutathione and ascorbate [4]: react rapidly
time to degradation of quinone product [5]: ½

Source: patent US8198302B2 (OXiGENE, Inc., priority 2004, dated 2012)
